ChEMBL document CHEMBL4393653, “Applications of Deuterium in Medicinal Chemistry” (J Med Chem, 2019)

What was measured:
[1] = Cmax in rat at 10 mg/kg, po; format: ADME, organism-based; design: dose 10 mg/kg, route oral; details: in vivo
[2] = Half life in rat at 10 mg/kg, po; format: ADME, organism-based; details: in vivo
[3] = Half life in human liver microsomes; format: ADME, Microsome

Row | Cmax [1] [ng/mL] | half-life [2] [h] | half-life [3] [h] | Compound
1 | 4180 | 4.29 |  | [2H]c1c([2H])c([2H])c(C2=C(c3ccc(S(C)(=O)=O)cc3)COC2=O)c([2H])c1[2H]
2 |  |  | 2.42 | [2H]C([2H])([2H])c1nnc(C(C)C)n1[C@@H]1C[C@H]2CC[C@@H](C1)N2C([2H])([2H])C[C@H](NC(=O)C1CCC(F)(F)CC1)c1ccccc1

The remaining lines, values behind:

Row | Compound | Cmax [1] [ng/mL] | half-life [2] [h] | half-life [3] [h]
3 | [2H]C([2H])([2H])c1nnc(C(C)C)n1[C@@H]1C[C@H]2CC[C@@H](C1)N2CC[C@H](NC(=O)C1CCC(F)(F)CC1)c1ccccc1 |  |  | 0.758
4 | Cc1nnc(C(C)C)n1[C@@H]1C[C@H]2CC[C@@H](C1)N2CC[C@H](NC(=O)C1CCC(F)(F)CC1)c1ccccc1 [MARAVIROC] |  |  | 1.62
5 | CS(=O)(=O)c1ccc(C2=C(c3ccccc3)C(=O)OC2)cc1 [ROFECOXIB] | 2420 | 4.18 | 
